From the supplement of paper PMC10307832

How the values were obtained:
Test in all cases: relative viability (nuclei count vs DMSO), 5 days (fraction); higher = more cells survive
Salubrinal = compound: O=C(/C=C/c1ccccc1)NC(NC(=S)Nc1cccc2cccnc12)C(Cl)(Cl)Cl [Salubrinal]
Outline: (§1)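 Hoechst staining, done together with fixation and permeabilisation, marked nuclei for 4× imaging and MetaXpress counting. This followed 5 days without medium change after lung cancer cell lines, kept overnight at 37 °C in 1536-well plates, were pinned with five library-drug doses (not always all listed) spaced by √10 on vehicle-anchored plates. Viability is the ratio of treated-well to vehicle-well nuclei, expressed as a median across plates. Plates passed only at control CV below 25% with at least one doubling.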

[1] = compound: Cc1ccc2nc(NCCN)c3ncc(C)n3c2c1
Outline: as §1

Salubrinal + Pemetrexed = compound: O=C(/C=C/c1ccccc1)NC(NC(=S)Nc1cccc2cccnc12)C(Cl)(Cl)Cl [Salubrinal] + Nc1nc2[nH]cc(CCc3ccc(C(=O)N[C@@H](CCC(=O)O)C(=O)O)cc3)c2c(=O)[nH]1 [Pemetrexed] (partner 0.2 µM)
Outline: (§2)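 Values are medians from duplicate plates. Each reflects relative viability, defined as the nuclei count of treated wells over that of vehicle wells. Lung cancer cell lines in 1536-well plates were pin-tool dosed one day after seeding with one drug alone or with a fixed anchor-drug dose plus five library-drug doses (not always all listed) in √10 steps, then fixed, stained and imaged at 4× after 5 days.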

[2] = compound: Cc1ccc2nc(NCCN)c3ncc(C)n3c2c1 + COc1cccc2cc(-c3nc([C@H]4CC[C@H](C(=O)O)CC4)n4ncnc(N)c34)[nH]c12 [OSI-027] (partner 0.5 µM)
Outline: as §2

Row | Cell Line | relative viability (Salubrinal; 0.08 µM) | relative viability (Salubrinal; 0.253 µM) | relative viability (Salubrinal; 0.8 µM) | relative viability (Salubrinal; 2.53 µM) | relative viability (Salubrinal; 8 µM) | relative viability ([1]; 0.04 µM) | relative viability ([1]; 0.1265 µM) | relative viability ([1]; 0.4 µM) | relative viability ([1]; 1.265 µM) | relative viability ([1]; 4 µM) | relative viability (Salubrinal + Pemetrexed; first compound 0.08 µM) | relative viability (Salubrinal + Pemetrexed; first compound 0.253 µM) | relative viability (Salubrinal + Pemetrexed; first compound 0.8 µM) | relative viability (Salubrinal + Pemetrexed; first compound 2.53 µM) | relative viability (Salubrinal + Pemetrexed; first compound 8 µM) | relative viability ([2]; first compound 0.04 µM) | relative viability ([2]; first compound 0.1265 µM) | relative viability ([2]; first compound 0.4 µM) | relative viability ([2]; first compound 1.265 µM) | relative viability ([2]; first compound 4 µM)
1 | HCC-78 | 1.03 | 0.937 | 1.27 | 0.949 | 0.891 | 1.08 | 0.979 | 0.919 | 0.943 | 0.826 | 0.928 | 0.837 | 0.971 | 0.918 | 0.899 | 0.417 | 0.421 | 0.371 | 0.341 | 0.337
2 | HCC-366 | 1.09 | 0.915 | 1.04 | 1.01 | 1.04 | 1.03 | 1.04 | 1.05 | 0.98 | 0.992 | 0.194 |  | 0.165 | 0.153 | 0.161 | 1.11 | 1.05 | 0.677 | 0.892 | 0.899
3 | HCC-827 | 1.04 | 1.07 | 1.01 | 1.01 | 1.03 | 1.07 | 1.04 | 1.02 | 1.04 | 1.05 | 0.503 | 0.276 | 0.278 | 0.227 | 0.245 | 0.802 | 0.779 | 0.873 | 0.841 | 0.736
4 | HOP-62 | 1.01 | 0.981 | 1.11 | 1.06 | 0.98 | 0.97 | 1 | 0.827 | 1.04 | 0.984 | 0.244 | 0.267 | 0.317 | 0.315 | 0.331 | 0.93 | 0.83 | 0.582 | 0.848 | 0.813
5 | IA-LM | 0.983 | 0.9 | 1.15 | 0.903 | 0.922 | 0.989 | 0.984 | 0.761 | 0.756 | 0.743 |  |  |  |  |  |  |  |  |  | 
6 | LC-2-ad | 1.01 | 0.921 | 1.13 | 0.99 | 0.93 | 0.991 | 1.01 | 0.911 | 1.03 | 0.965 | 0.242 | 0.276 | 0.268 | 0.272 | 0.264 | 0.866 | 0.825 | 0.789 | 0.889 | 0.784
7 | LCLC-97TM1 | 1.07 | 1.06 | 1.21 | 0.992 | 1.11 | 1.07 | 0.934 | 0.978 | 1.04 | 0.899 | 0.169 | 0.218 | 0.19 | 0.158 | 0.158 | 0.592 | 0.463 | 0.452 | 0.828 | 0.437
8 | LCLC-103H | 1.07 | 0.932 | 1.05 | 1.09 | 0.935 | 1 | 0.974 | 0.918 | 1.08 | 0.955 | 0.439 | 0.539 | 0.506 | 0.461 | 0.457 | 0.551 | 0.492 | 0.464 | 0.494 | 0.421
9 | LK-2 | 1.08 | 1.01 | 1.27 | 1.16 | 1 | 0.961 | 0.928 | 0.881 | 0.979 | 1.03 | 0.321 | 0.24 | 0.463 | 0.335 | 0.254 | 0.173 | 0.202 | 0.182 | 0.188 | 0.18
10 | LOU-NH91 | 0.985 | 0.976 | 1.04 | 0.983 | 0.937 | 1.01 | 0.961 | 0.949 | 0.979 | 0.901 | 0.708 | 0.368 | 0.5 | 0.343 | 0.371 | 0.795 | 0.726 | 0.708 | 0.762 | 0.668
11 | LU99A | 1.07 | 0.862 | 1.03 | 0.9 | 0.898 | 1.07 | 0.904 | 0.986 | 0.961 | 0.839 | 0.176 | 0.205 | 0.265 | 0.265 | 0.185 | 0.34 | 0.268 | 0.283 | 0.273 | 0.298
12 | LXF-289 | 1.04 | 0.945 | 1.01 | 0.995 | 0.975 | 0.985 | 0.966 | 1.01 | 1.01 | 1.02 | 1.06 | 0.891 | 0.988 | 0.851 | 0.851 | 0.898 | 0.79 | 0.901 | 0.872 | 0.776
13 | NCI-H23 | 1.11 | 0.858 | 1.18 | 0.995 | 1.08 | 1.06 | 1.11 | 0.853 | 1.09 | 0.907 | 0.674 | 0.633 | 0.919 | 0.653 | 0.421 | 0.828 | 0.709 | 0.54 | 0.607 | 0.531
14 | NCI-H322M | 1.01 | 0.869 | 0.963 | 0.988 | 0.811 | 0.983 | 0.915 | 0.988 | 0.987 | 0.996 | 0.699 | 0.578 | 0.684 | 0.574 | 0.544 | 0.641 | 0.544 | 0.481 | 0.568 | 0.526
15 | NCI-H727 | 1.01 | 1.45 | 1.11 | 0.827 | 0.797 | 0.969 | 0.734 | 1.14 | 0.949 | 0.994 |  |  |  |  |  | 0.852 | 0.707 | 0.754 | 0.645 | 0.585
16 | NCI-H1299 | 1.03 | 1.06 | 1 | 0.996 | 0.987 | 1.01 | 0.986 | 0.969 | 0.972 | 0.928 |  |  |  |  |  |  |  |  |  | 
17 | NCI-H1623 | 1.08 | 1.18 | 0.949 | 1.1 | 0.997 | 1.01 | 0.838 | 0.961 | 0.887 | 0.937 |  |  |  |  |  | 0.418 | 0.444 | 0.451 | 0.39 | 0.425
18 | NCI-H1703 | 1.12 | 1.03 | 0.994 | 0.881 | 0.942 | 1.07 | 1.07 | 1.01 | 1.16 | 0.91 |  |  |  |  |  |  |  |  |  | 
